“Also recorded” adds a separate entry of the source.
Molecular target: T1, human sGCa1 and mutant sGCβ1H105F (apo-sGC) in Sf9 cells (Homo sapiens, UniProt Q02153, H105F)
T1 construct: His tag; expressed in transfected cells; host or cells: Sf9 cells co-infected with baculoviruses
T1 sequence (Q02153 1-619 H105F): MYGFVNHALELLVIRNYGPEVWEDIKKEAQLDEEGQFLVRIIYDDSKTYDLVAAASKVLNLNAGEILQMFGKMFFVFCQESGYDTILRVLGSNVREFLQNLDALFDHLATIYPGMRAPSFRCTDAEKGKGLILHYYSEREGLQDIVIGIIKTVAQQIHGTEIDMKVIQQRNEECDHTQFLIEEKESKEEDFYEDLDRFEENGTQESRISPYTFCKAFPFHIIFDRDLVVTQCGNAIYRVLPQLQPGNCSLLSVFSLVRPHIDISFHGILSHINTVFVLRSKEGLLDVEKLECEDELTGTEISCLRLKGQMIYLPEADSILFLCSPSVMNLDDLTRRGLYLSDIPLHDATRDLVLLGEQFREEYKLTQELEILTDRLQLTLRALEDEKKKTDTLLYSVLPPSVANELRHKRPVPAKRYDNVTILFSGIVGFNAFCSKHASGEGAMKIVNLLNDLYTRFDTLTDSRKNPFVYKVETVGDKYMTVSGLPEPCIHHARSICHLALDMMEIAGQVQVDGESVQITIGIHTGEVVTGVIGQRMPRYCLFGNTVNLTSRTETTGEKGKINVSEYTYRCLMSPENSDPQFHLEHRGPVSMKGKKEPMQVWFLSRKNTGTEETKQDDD
T1 sequence (Q02108 1-690 partner): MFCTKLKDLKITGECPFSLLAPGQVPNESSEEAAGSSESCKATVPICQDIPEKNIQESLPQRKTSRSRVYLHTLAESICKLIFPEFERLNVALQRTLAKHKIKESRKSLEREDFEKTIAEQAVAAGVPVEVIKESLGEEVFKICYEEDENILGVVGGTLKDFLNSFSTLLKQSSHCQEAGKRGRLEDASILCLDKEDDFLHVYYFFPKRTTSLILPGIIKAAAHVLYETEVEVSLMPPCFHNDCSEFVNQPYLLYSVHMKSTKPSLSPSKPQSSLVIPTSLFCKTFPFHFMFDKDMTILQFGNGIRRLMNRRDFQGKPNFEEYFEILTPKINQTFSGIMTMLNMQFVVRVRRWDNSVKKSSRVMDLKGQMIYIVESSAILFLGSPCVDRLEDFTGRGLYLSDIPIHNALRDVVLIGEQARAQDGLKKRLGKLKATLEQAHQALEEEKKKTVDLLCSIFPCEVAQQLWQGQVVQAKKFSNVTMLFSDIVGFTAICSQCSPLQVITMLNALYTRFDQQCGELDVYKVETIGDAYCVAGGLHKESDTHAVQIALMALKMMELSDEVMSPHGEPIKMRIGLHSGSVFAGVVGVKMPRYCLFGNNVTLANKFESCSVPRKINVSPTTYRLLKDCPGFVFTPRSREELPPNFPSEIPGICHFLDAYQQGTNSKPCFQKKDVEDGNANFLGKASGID
Test: cGMP accumulation in intact Sf9 cells expressing apo-sGC
Format: cell-based
Details: 10 micromole/L DETA-NONOate alone (FIG. 12A)
Method: Sf9 cells were co-infected with baculoviruses expressing human sGCa1 and mutant sGCβ1H105F. Forty-eight hours post-infection, the cells were treated with vehicle, NO donor, sGC stimulator, sGC activator or combination in 2 ml final volume of 10^6 cells per ml then the cells were incubated for 10 min at 27° C. The reaction was terminated by the addition of 0.1M of HCl, and cGMP was extracted on ice for 20 min. Cells were then sonicated to ensure complete lysis. The extract was then centrifuged and used for cGMP determination by an ELISA (Enzo Life Sciences).
Forty-eight hours post-infection, the cells were treated with vehicle, NO donor, sGC stimulator, sGC activator or combination in 2 ml final volume of 10^6 cells per ml and subsequently, the cells were incubated for 10 minutes at 27° C. The reaction was terminated by the addition of 0.1M of HCl, and cGMP was extracted on ice for 20 minutes. Cells were then sonicated to ensure complete lysis. The obtained cell extract was then centrifuged and used for cGMP determination by an ELISA. […] In the absence of any of the NO donor, the sGCs or the combination of these compounds, no cGMP synthesis is detected. It is now for the first time shown by the inventors that apo-sGC is still activatable even in the absence of an sGC activator known in the art. The presence of the sGCs facilitates NO binding to a secondary, heme-independent NO binding-site, and in addition, presence of an NO donor acts synergistically, when cGMP production is considered. Due to the invention, it is now made possible to treat patients with an sGCs, resulting in cGMP formation, under conditions wherein treatment with sGC activators has no effect at all or a too small effect, e.g. under conditions of ischemia, neonatal asphyxia, stroke, hypoxia, acute respiratory distress syndrome, asthma, oxidative (organ and/or tissue and/or cell) damage, etc. The invention provides a new treatment modality for these patients, which are often not sensitive (enough) for sGCa treatment. […] C.

## NCCN(CCN)/[N+]([O-])=N/O [DETA-NONOate]
  cGMP formation, NO donor only: hardly produced any cGMP; also recorded: no effect on cGMP formation

Reference: patent US20230087609A1, “USE OF A SOLUBLE GUANYLATE CYCLASE (sGC) STIMULATOR OR OF A COMBINATION OF A sGC STIMULATOR AND AN sGC ACTIVATOR FOR CONDITIONS WHEREIN THE HEME GROUP OF sGC IS OXIDIZED OR WHEREIN sGC IS DEFICIENT IN HEME” (Universiteit Maastricht, priority 2020, published 2023)
